From PubChem BioAssay (NCI) come the findings set out here.

Test systems include HS 578T breast; NCI-H23 lung; SK-MEL-28 melanoma; 786-0 renal; T-47D breast; OVCAR-5 ovarian; UO-31 renal; DU-145 prostate; A498 renal; HCC-2998 colon.
What all share (test): NCI anticancer screen, dose series, 48 h

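Briefly, cells in 96-well plates were exposed to five compound concentrations for 48 h, and endpoints were estimated by linear interpolation. Here, GI50 denotes the concentration required for 50% inhibition of growth. The concentration for full growth arrest is given as TGI.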

`OC(c1cc(C(F)(F)F)nc2c(C(F)(F)F)cccc12)C1CCCCN1` (stereo not given): the GI50 with HS 578T breast is 3.8 µM; in the test on NCI-H23 lung, 2.85 µM; in the test with SK-MEL-28 melanoma, 1.84 µM; with 786-0 renal, 1.88 µM; with T-47D breast, 1.76 µM; in the test with OVCAR-5 ovarian, 2.88 µM. Besides, the GI50 with UO-31 renal was 2.63 µM; in the test on DU-145 prostate it was 2.76 µM; with A498 renal it was 1.81 µM; in the test on HCC-2998 colon, 1.46 µM. The TGI with HS 578T breast came to 19.5 µM; with NCI-H23 lung it was 11.3 µM; in the test with SK-MEL-28 melanoma, 3.29 µM; in the test with 786-0 renal, 3.77 µM; in the test on T-47D breast, 4.11 µM; with OVCAR-5 ovarian, 10.4 µM. For the same molecule, the TGI in the test on UO-31 renal is 12.3 µM; in the test on DU-145 prostate, 6.16 µM; with A498 renal, 7.83 µM; in the test with HCC-2998 colon it was 3.22 µM.

For `C=C1C[C@H](O)[C@H](Br)C(C)(C)[C@@]12CCC(C)=C(Cl)C2`, the GI50 in the test on HS 578T breast is 0.289 µM; in the test on NCI-H23 lung, 0.173 µM; in the test with SK-MEL-28 melanoma, 0.458 µM; in the test on 786-0 renal, 0.57 µM; with T-47D breast it was 0.15 µM; in the test with OVCAR-5 ovarian, 0.342 µM. Besides, the GI50 in the test on UO-31 renal is 0.612 µM; in the test with DU-145 prostate it was 0.276 µM; in the test on A498 renal, 0.838 µM; in the test on HCC-2998 colon it was 0.568 µM. The TGI with HS 578T breast was found to be 2.98 µM; in the test on NCI-H23 lung it was 2.99 µM; with SK-MEL-28 melanoma it was 2.78 µM; in the test with 786-0 renal, 11.7 µM; with T-47D breast, 11.3 µM; in the test with OVCAR-5 ovarian, 8.87 µM. Besides, the TGI in the test with UO-31 renal was 3.25 µM; with DU-145 prostate, 3.25 µM; with A498 renal, 4.04 µM; in the test on HCC-2998 colon it was 14 µM.

On to `COC(=O)[C@]12CC[C@@H](C)[C@H](C)[C@@H]1C1=CC[C@@H]3[C@@]4(C)C[C@@H](O)[C@H](O)[C@@](C)(CO)[C@@H]4[C@H](O)C[C@@]3(C)[C@]1(C)CC2`, for which the GI50 in the test with HS 578T breast is 18.5 µM; with NCI-H23 lung it was 16.8 µM; in the test on SK-MEL-28 melanoma, 11.8 µM; in the test with 786-0 renal it was 11.5 µM; in the test with T-47D breast, 7.23 µM; in the test on OVCAR-5 ovarian, 17.9 µM. The GI50 in the test with UO-31 renal is 6.3 µM; in the test on DU-145 prostate it was 16.4 µM; in the test on A498 renal, 16.6 µM; in the test with HCC-2998 colon, 14.6 µM. The TGI in the test with HS 578T breast was determined as 45.8 µM; in the test with NCI-H23 lung it was 36.6 µM; with SK-MEL-28 melanoma, 30.3 µM; in the test on 786-0 renal, 31.6 µM; with T-47D breast, 29.1 µM; with OVCAR-5 ovarian it was 36.4 µM. Also, the TGI in the test on UO-31 renal was 29.8 µM; with DU-145 prostate, 31.8 µM; with A498 renal it was 30.9 µM; with HCC-2998 colon, 31.2 µM.

With `CCNC(=O)C#Cc1ccc2c(C(=Nc3ccc(CN(C)C)cc3)c3ccccc3)c(O)[nH]c2c1`, the GI50 was 0.291 µM in the test on HS 578T breast; 0.0614 µM in the test on NCI-H23 lung; 0.00911 µM with SK-MEL-28 melanoma; 0.356 µM in the test on 786-0 renal; 3.21 µM in the test on T-47D breast; 0.0262 µM with OVCAR-5 ovarian. The GI50 in the test with UO-31 renal is 0.0811 µM; with DU-145 prostate it was 1.26 µM; in the test with A498 renal, 0.0274 µM; in the test with HCC-2998 colon it was 0.106 µM. Besides, the TGI was 1.66 µM with HS 578T breast; greater than 4.28 µM in the test with NCI-H23 lung; 0.102 µM in the test on SK-MEL-28 melanoma; 2 µM in the test with 786-0 renal; greater than 6.87 µM with T-47D breast; 0.732 µM in the test with OVCAR-5 ovarian. For the same molecule, the TGI is 1.34 µM in the test with UO-31 renal, greater than 10 µM in the test on DU-145 prostate, 0.179 µM in the test with A498 renal and 0.696 µM in the test with HCC-2998 colon.

Consider `COc1cc(-c2nc3sccn3c2-c2ccnc(NCCNS(=O)(=O)c3ccc(F)cc3)n2)ccc1F`, for which the GI50 is 1.88 µM in the test on HS 578T breast; 2.96 µM in the test with NCI-H23 lung; 3.28 µM in the test with SK-MEL-28 melanoma; 0.503 µM in the test with 786-0 renal; 0.634 µM in the test with T-47D breast; 6.51 µM in the test with OVCAR-5 ovarian. In addition, the GI50 in the test with UO-31 renal was 1.29 µM; in the test on DU-145 prostate it was 2.42 µM; in the test on A498 renal, 2.4 µM; with HCC-2998 colon it was 3.21 µM. For the same molecule, the TGI with HS 578T breast is greater than 100 µM; in the test with NCI-H23 lung, greater than 100 µM; in the test on SK-MEL-28 melanoma, greater than 100 µM; in the test on 786-0 renal it was greater than 100 µM; with T-47D breast, 35.9 µM; with OVCAR-5 ovarian, greater than 100 µM. Besides, the TGI in the test with UO-31 renal, in the test on DU-145 prostate, in the test with A498 renal and in the test with HCC-2998 colon was greater than 100 µM each time.

Consider `Cc1cc(Nc2ccc(C)c(Cl)c2)n2nc(C(F)(F)F)nc2n1`, for which the GI50 in the test with HS 578T breast is 22.6 µM; in the test with NCI-H23 lung it was 29.4 µM; with SK-MEL-28 melanoma, 29.8 µM; in the test on 786-0 renal it was 18.8 µM; in the test on T-47D breast it was 17.5 µM; in the test on OVCAR-5 ovarian, 38 µM. Besides, the GI50 in the test with UO-31 renal was 14.1 µM; with DU-145 prostate, 17.6 µM; with A498 renal, 8.61 µM; in the test on HCC-2998 colon, 40.8 µM. Moreover, the TGI was 77.4 µM in the test on HS 578T breast; greater than 100 µM in the test on NCI-H23 lung; greater than 100 µM in the test on SK-MEL-28 melanoma; 40 µM in the test on 786-0 renal; 76 µM in the test with T-47D breast; greater than 100 µM in the test with OVCAR-5 ovarian. The TGI is 33.4 µM in the test on UO-31 renal, 38.9 µM in the test with DU-145 prostate, 53.5 µM in the test with A498 renal and greater than 100 µM in the test with HCC-2998 colon.

As to `CN1CCN(C(=O)COc2ccc(C34CC5CC(CC(C5)C3)C4)cc2)CC1`, the GI50 with HS 578T breast was 15.6 µM; in the test on NCI-H23 lung, 15.3 µM; in the test on SK-MEL-28 melanoma, 12.7 µM; in the test on 786-0 renal, 11.3 µM; in the test on T-47D breast, 12.9 µM; in the test with OVCAR-5 ovarian, 17.6 µM. The GI50 with UO-31 renal was 12.4 µM; in the test with DU-145 prostate it was 19 µM; in the test on A498 renal, 15.2 µM; in the test on HCC-2998 colon it was 13.8 µM. The TGI in the test on HS 578T breast came out at 45.6 µM; in the test on NCI-H23 lung, 36.7 µM; with SK-MEL-28 melanoma, 26.2 µM; in the test on 786-0 renal it was 23.5 µM; in the test on T-47D breast, 39.2 µM; in the test with OVCAR-5 ovarian it was 44.6 µM. In addition, the TGI in the test on UO-31 renal turned out to be 25 µM; in the test with DU-145 prostate it was 55.7 µM; with A498 renal it was 30.5 µM; in the test with HCC-2998 colon, 27.4 µM.
